Experimental data taken from patent US20150328109A1, “DERMAL COMPOSITIONS CONTAINING UNNATURAL HYGROSCOPIC AMINO ACIDS” (MEDPHARM LIMITED, priority 2012, published 2015).

Legend:
[1] = system: RHE tissues; test: RHE irritation assessment Method 2: Mattek's MTT effective time (ET-50) assay; type: cell-based, human; conditions: for ET-50 (exposure time to reduce viability to 50% of the control): 1% w/v N-H-G in water, dosing periods 2, 6 and 24 h
From the text: Method 1 was used to investigate the potential for alpha-hydroxylglycine (α-H-G) and L-homoserine (L-h-S) to cause skin irritation. The protocol is primarily designed and validated for single compounds rather than solutions. Therefore to provide further insight into the potential of N-hydroxyserine and N-hydroxylglycine to cause skin irritation a second protocol was investigated using Mattek's MTT effective time (ET-50) assay which is designed to test mixtures of compounds. In addition two commercially available amino acid related compound (L-serine and glycine) were selected and tested as comparators for N-hydroxyserine and N-hydroxylglycine. […] As a general guideline, the following groupings can be used in assigning expected in vivo irritancy responses based on the ET-50 results obtained: The irritation assessment of the solutions was performed using the protocol described below. Each of the test solutions; […] Damaged tissues were discarded. • (iii) The tissue were transferred into the assay medium and incubated at 37° C., 5% CO2 until the application of the test solutions; […] The working MTT solution was prepared using the following procedure: • (i) MTT concentrate was removed from the freezer and allowed to thaw. The concentrate was diluted with the MTT diluent solution (1 mL of concentrate to 4 mL of MTT diluent solution). • (ii) MTT solution from Step (i) was centrifuged at a g-force of 300 for 5 min to remove any particulates. • (iii) The supernatant of the MTT solution from Step (ii) was stored in the dark at 4° C. for a maximum period of 24 h and used as required. […] The plates were incubated for 3 h (+/−5 min) at 37° C., 5% CO2 and 95% humidified atmosphere. • (vi) The treated tissues were subsequently transferred into a new plate filled with 1 mL of extractant solution. • (vii) The plates were sealed using Parafilm® to stop evaporation and protected from light using foil before extract at 2-8° C. to minimise evaporation. • (viii) Following extraction the RHE tissue were removed from the wells and an additional 1 mL of extractant solution was added. Using a pipette the extraction solution was mixed and made visually homogenous. • (ix) The solution from Step (viii) was transferred in to n=3 wells (200 μL per well) using an automatic pipette of a 96 well plate and the optical density was measured at a wavelength of 570 nm.

[2] = system: Normal RHE tissue; test: Tissue viability (MTT) of normal RHE tissue during 6 day treatment; type: cell-based, human; conditions: 10% w/v, n = 1
Protocol: In this investigation two types of RHE tissues were used, which were healthy and psoriatic tissue sourced from the MatTek Corporation (Ashland, Mass.). For simplicity the protocol below refers to both tissue types as RHE tissues and all media as assay medium as both tissues were treated in the same manner. The only exception was that two different types of media were required for the different types of tissue (healthy and psoriatic tissues).
• (i) At the end of the equilibration period, the media for each well was removed then the tissues were lifted and placed on culture stands and fresh pre-warmed (37° C.) assay medium (5 mL) was added to the well. • (ii) Using a positive displacement pipette, the test solutions 10% w/v, N-H-S(N-hydroxyserine) in water, […], N-H-G (N-hydroxyglycine) in water, 10% w/v, L-h-S (L-homoserine) in water and 10% w/v, combination 1:1:1 (N-H-S:N-H-G: L-h-S) in water were dispensed (50±0.5 μL) onto the top of the RHE tissue. The solutions or controls were then distributed over the surface of the RHE tissues using a sterile glass rod. • (iii) The lid was placed on the well plate containing the RHE tissue and the tissues were returned to the incubator (37° C., 5% CO2) 48 h between applications.
• (i) Every 48 h culture media for the RHE tissues was removed from the 6 well plates and transferred into tubes stored (−20° C.) for cytokine analysis. • (ii) Fresh pre-warmed (37° C.) assay medium (5 mL) was added to each tissue using an automatic pipette. • (iii) From each treatment 1 tissue was removed for viability assessment. • (iv) The RHE tissues were subsequently rinsed with 100 μL of PBS to remove the residual solution from the epidermal surface. • (v) Using a positive displacement pipette, the solutions 10% w/v, N-H-S in water, 1% w/v, N-H-G in water, 10% w/v, L-h-S in water and 10% w/v, combination 1:1:1 (N-H-S:N-H-G:L-h-S) were dispensed (50±0.5 μL) onto the top of the RHE tissue. The solutions or controls were then distributed over the surface of the RHE tissues using a sterile glass rod. • (vi) The lid was placed on the well plate containing the RHE tissue and the tissues were returned to the incubator (37° C., 5% CO2) 48 h between applications at t=0, 48 and 96 h.
To determine the viability of the RHE tissue post application of the solutions and controls, the following procedure was used: • (i) The required wells in 24-well plates were filled with 300 μL MTT solution and protected from light. • (ii) The tissues were removed from the post treatment incubation plates and excess solutions and controls were removed with sterile cotton swabs. • (iii) The RHE tissue was subsequently rinsed with 1000 μL of PBS five times to remove the residual solution from the epidermal surface. • (iv) The tissue from Step (iii) was blotted dry with cotton swabs. • (v) The treated tissues from Step (iv) were transferred into wells in 24-well plates pre-filled with MTT solution (300 μL). The plates were incubated for 3 h (+/−5 min) at 37° C., 5% CO2 and 95% humidified atmosphere. • (vi) The treated tissues were subsequently transferred into a new plate filled with 1 mL of extractant solution. • (vii) The plates were sealed using Parafilm® to stop evaporation and protected from light using foil before extract at 2-8° C. to minimise evaporation. • (viii) Following extraction the RHE tissue were removed from the wells and an additional 1 mL of extractant solution was added. Using a pipette the extraction solution was mixed and made visually homogenous. • (ix) The solution from Step (viii) was transferred in to n=3 wells (200 μL per well) using an automatic pipette of a 96 well plate and the optical density was measured at a wavelength of 570 nm.

[3] = Snake study: water uptake into snake skin after treatment with amino acid solution; parameters: species or system Elaphe guttata, the American corn snake; conditions: 24 h treatment with 1.33M amino acid solution, dried, then 40% RH
Protocol: • All experiments were performed in triplicate (i.e. three separate solutions, three pieces of skin, one per solution). […] Each piece was weighed and placed directly into one the of the amino acid solutions, one piece of snake skin per solution. • After 1 hour, the snake skin was removed from the solution and blotted dry on filter paper. The weight of the snake skin was recorded before the same snake skin was returned to the amino acid solution. • After an additional 23 hours (24 hours in total), the snake skin was again blotted dry on filter paper and weighed. • The snake skin, now having absorbed the test amino acid, was then placed in a vacuum desiccator over silica (0% RH) for 48 hours before being weighed.
• A 10% w/w concentration solution of each compound is made by stirring the compound (100 mg) in water (1 mL). Three separate solutions of each compound are made separately so that the experiment can be carried out in triplicate simultaneously. […] The weight of the snake skin is recorded before the same snake skin is returned to the same compound solution. • After an additional 23 hours (24 hours in total), the snake skin is again blotted dry on filter paper and weighed. • The snake skin is then placed in a vacuum desiccator over silica (0% relative humidity (RH)) for 48 hours before being weighed. […]

SMILES | ET-50 (exposure time to reduce viability to 50% of the control) ([1]; 10% w/v N-H-S) [h] | ET-50 (exposure time to reduce viability to 50% of the control) ([1]; 10% w/v N-H-S, listed as N-H-S) [h] | expected in vivo irritancy from ET-50 ([1]; 10% w/v N-H-S, 1% w/v N-H-G, 10% w/v L-Serine, 10% w/v Glycine in water) | Normal RHE tissue viability as a percentage of untreated control (%) ([2]; 2 days in treatments) | Normal RHE tissue viability as a percentage of untreated control (%) ([2]; 4 days in treatments) | Normal RHE tissue viability as a percentage of untreated control (%) ([2]; 6 days in treatments) | impact on the viability of the RHE tissues ([1]; dosing periods t=2, 6 and 24 h, 1% w/v N-H-G, 10% w/v L-Serine, 10% w/v Glycine) | average percentage weight increase after 24 h at 40% RH [3]
O=C(O)[C@H](CO)NO [N-hydroxyserine] | 12 to 24 | 22.8 | very mild (12-24 very mild) | 83.4 | 91.5 | 86.9 |  | 
O=C(O)CNO [N-hydroxyglycine, N-Hydroxyglycine] |  |  |  | 97.9 | 91.5 | 93.3 | no significant impact | 
N[C@@H](CCO)C(=O)O [L-homoserine] |  |  |  |  |  |  |  | particularly advantageous properties
